The results in this text go back to PubChem BioAssay AID1996.

In general, solubility (kinetic) refers to the concentration staying in solution when a stock, usually in DMSO, is diluted into the medium.

In brackets after ≈: the same amount, converted by molar mass.

For the data set the following is noted: buffer; pH 7.4; 200.0 µM.
Take `O=S(=O)(c1ccc2ccccc2c1)N1CCNCC1`: the solubility (kinetic) amounted to 32.7 µg/mL (≈ 118 µM). On to `CCC(CO)NCC(O)COCc1ccc2c(c1)OCO2` (configuration not stated), for which the kinetic solubility is > 44.6 µg/mL. The same measure for `CCOC(=O)N1CCN(CC(=O)Nc2ccc(F)cc2F)CC1`: > 49.1 µg/mL. As for `CCOc1ccc(N2C(=O)CC(SCC(=O)O)C2=O)cc1` (configuration not stated), the solubility (kinetic) was > 46.4 µg/mL. With `O=C(NC1CCCCC1)C1CCC(=O)N(C2CC2)C1` (configuration not stated), the kinetic solubility was > 39.7 µg/mL. Compound `CNC(=O)C12CC3CC(C1)CC(c1ccc(C)cc1)(C3)C2` had a solubility (kinetic) of 31.8 µg/mL (≈ 112 µM).

For the compound `CCC1CO/C(=C(\C(=C(Cl)Cl)N2CCOCC2)[N+](=O)[O-])N1` (configuration not stated), the kinetic solubility was > 50.7 µg/mL.

`CCOC(=O)c1sc(CS(=O)(=O)c2ccc(Cl)cc2)nc1C` showed a kinetic solubility of 6.1 µg/mL (≈ 17 µM).

As to `CCCCn1c(O)c(C(C)=NCc2ccco2)c(=O)[nH]c1=O`, the kinetic solubility turned out to be 9.1 µg/mL (≈ 29.8 µM). On to `CCOc1cc(C(=O)N=c2sccn2C)ccc1OC(F)F`, for which the kinetic solubility stood at 45.4 µg/mL (≈ 138 µM). Regarding `O=C(CN1C(=O)CSc2ncccc21)Nc1ccccc1F`, the solubility (kinetic) was > 47.6 µg/mL. The value for `Cn1c(=O)oc2cc(S(=O)(=O)Nc3ccc(F)cc3)ccc21` was 7.2 µg/mL (≈ 22.3 µM); that for `COc1ccc(CCNC(=O)[C@@H](NC(N)=O)C(C)C)cc1` was > 44 µg/mL.

In the case of `O=C(OCC(=O)N1CCCC1)c1cnc(Cl)c(Cl)c1`, the kinetic solubility is > 45.5 µg/mL. The same measure for `O=C(CNC(=O)c1ccccc1F)Nc1ccc2c(c1)OCO2`: 23.2 µg/mL (≈ 73.4 µM). In turn, `CC(C)Cn1c(-c2ccc(Br)cc2)c[nH]c1=S` came in with a kinetic solubility of 5.7 µg/mL (≈ 18.3 µM). The same measure for `O=C(Nc1ccc(S(=O)(=O)Nc2ncccn2)cc1)C(F)(F)F`: > 51.9 µg/mL. As to `COc1ccccc1/C=C/c1ccc2cccc(O)c2n1`, the solubility (kinetic) was found to be 11.2 µg/mL (≈ 40.4 µM). `CCC(=O)c1ccc(OCC(=O)N2CCCC2)c(OC)c1`: the solubility (kinetic) is > 43.7 µg/mL. The value for `Cc1cc(C(=O)CN2C(=O)NC3(CCCCC3)C2=O)c(C)n1C` was 19 µg/mL (≈ 59.9 µM); that for `COC(=O)[C@H](CC(C)C)NC(=O)Nc1ccccc1F` was > 42.3 µg/mL. Regarding `COc1ccc([N+](=O)[O-])cc1NC(=O)CCN1CCOCC1`, the solubility (kinetic) was > 46.4 µg/mL.

In the case of `COc1ccccc1NC(=O)CCN1CCN(C)CC1`, the solubility (kinetic) stood at 38.6 µg/mL (≈ 139 µM). In the case of `COC(=O)c1cc(C(=O)NC(C)C2CC3CCC2C3)cc([N+](=O)[O-])c1` (configuration not stated), the solubility (kinetic) stood at 11 µg/mL (≈ 31.8 µM). The compound `NC(=O)NC(=O)COC(=O)c1cccnc1Nc1ccccc1F` came in with a solubility (kinetic) of 4.6 µg/mL (≈ 13.8 µM). The value for `O=C(NC1CC1)C1CCCN1C(=O)NC1CCCCC1` (configuration not stated) was > 41.9 µg/mL; that for `COc1ccc2c(c1OC)C(=O)N(c1ccc(O)cc1)C2` was 6.3 µg/mL (≈ 22.1 µM). On to `O=C(Nc1cccc2ncccc12)c1ccc(OCc2ccccc2)cc1`, for which the kinetic solubility was < 0.4 µg/mL. With `CC(C)c1ccc(NC2CCCN(C(=O)c3ccsc3)C2)cc1` (configuration not stated), the solubility (kinetic) was > 49.3 µg/mL.

Take `Cc1cc(O)ccc1Nc1nc(-c2cccnc2)cs1`: the kinetic solubility was 1.8 µg/mL (≈ 6.35 µM). For `CN(CCC1CCOCC1)Cc1nc(Cc2ccccc2F)no1`, the solubility (kinetic) is > 50 µg/mL. Consider `N#CC1=C(N)Oc2cc(O)c(Cl)cc2C1c1cccnc1` (configuration not stated), for which the solubility (kinetic) is 11.2 µg/mL (≈ 37.4 µM). For the compound `CC(OC(=O)c1nsc(Cl)c1Cl)C(=O)NC1CCCCC1` (configuration not stated), the solubility (kinetic) amounted to 31.6 µg/mL (≈ 90 µM). `ClCC1NCC(c2ccccc2Cl)c2c1[nH]c1ccccc21` (configuration not stated) came in with a solubility (kinetic) of 19.3 µg/mL (≈ 58.3 µM). On to `c1ccc2nc(SCc3cn4ccccc4n3)cnc2c1`, for which the solubility (kinetic) was > 43.9 µg/mL.

`O=C(O)c1cccc(Nc2c3ccccc3nc3ccccc23)c1` displayed a solubility (kinetic) of 2.4 µg/mL (≈ 7.63 µM). The same measure for `COc1ccc(CNc2nc(C)cc(C)c2C#N)cc1`: 0.6 µg/mL (≈ 2.24 µM). In the case of `Cc1ccc(C(=O)O)cc1NC(=O)CSc1nnc(-c2ccccc2F)n1C1CCCCC1`, the solubility (kinetic) was > 70.3 µg/mL.

`CC(C)(C)OC(=O)N1CCCN(C(=O)Nc2ccc(C(F)(F)F)cc2)CC1` gave a kinetic solubility of 53.8 µg/mL (≈ 139 µM).

For `COc1ccc(NC(=O)COC(=O)CCC2CCCC2)c(OC)c1`, the solubility (kinetic) was found to be 17.4 µg/mL (≈ 51.9 µM). Take `Cc1ccccc1CN(C)CC(=O)Nc1c(C)cccc1C(C)C`: the kinetic solubility was 12.1 µg/mL (≈ 37.3 µM). The value for `O=C(O)c1cccc2c1C(=O)N(Cc1ccccc1)C2` was > 40.1 µg/mL.

`Cc1ccc(F)c(NC(=O)c2cncn2-c2ccccc2)c1` yielded a solubility (kinetic) of 41.2 µg/mL (≈ 140 µM). The value for `O=C(NCc1ccco1)/C(=C\c1ccccc1)NC(=O)c1ccccc1` was 17.2 µg/mL (≈ 49.7 µM). As to `Cc1cccc(C)c1NC(=O)c1cccnc1`, the solubility (kinetic) came out at 33.1 µg/mL (≈ 146 µM).

In turn, `Cc1nc2ccc([N+](=O)[O-])cc2c(=O)n1Cc1ccc(Cl)cc1` gave a solubility (kinetic) of 0.6 µg/mL (≈ 1.82 µM). The value for `COc1cc(NC(=S)N2CCN(C)CC2)cc(OC)c1` was > 44.3 µg/mL. The value for `CCOC(=O)N1CCN(CC(O)c2c[nH]c3ccc(OC)cc23)CC1` (configuration not stated) was > 52.1 µg/mL; that for `Cl.Fc1ccccc1Nc1nc(Cl)nc(Cl)n1` was > 44.3 µg/mL.

In turn, `Cc1ccccc1CC(=O)N1CCN(S(=O)(=O)c2ccc(Cl)s2)CC1` had a solubility (kinetic) of 5.6 µg/mL (≈ 14 µM). The value for `Cc1cc(C)nc(/N=C(\NC(=O)C(C)(C)C)Nc2ccc(F)cc2)n1` was 0.5 µg/mL (≈ 1.46 µM); that for `COc1ccc(NC(=O)Oc2ccccc2)cc1Cl` was 18.4 µg/mL (≈ 66.3 µM).
